Earlier results in patent US10703699B2, “Solubilization of pterostilbene and resveratrol for aqueous beverages” (Ironstone Separations, Inc., priority 2013, dated 2020).

What was measured:
[1] = animal studies

bioavailability [1] [%]	Solubility in aqueous media	Molecule
80	very low	trans-3,5-dimethoxy-4-hydroxystilbene [Pterostilbene]
20		Oc1ccc(/C=C/c2cc(O)cc(O)c2)cc1 [Resveratrol, 3,5,4′-trihydroxy-trans-stilbene]
